Experimental data: patent publication US9833497B2, “Human originated EGF domain proteins and use of the same” (CHENGDU SOURCEBIO LIMITED-LIABILITY COMPANY, priority 2013, dated 2017)

Tests used:
Type in all cases: cell-based
[1] = tested on: E. coli DH5α; assay: Antibacterial activity: MIC and growth curve against E. coli DH5α in 96-well plate; details: minimal inhibitory concentration against E. coli DH5α; 96-well plate, 5×10^5 CFU/mL, 37° C., judged after 8 h
Procedure, shortened: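 MIC taken as lowest protein level with no bacterial growth, tracked by A600 every 30 min during 37 °C, 175 rpm culture. Two-fold protein series 50-12.5 μg/mL final, triplicate wells, against 5×10^5 CFU/mL of LB-washed mid-log cells.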

[2] = tested on: E. coli BL21; assay: MIC against Gram-negative bacteria: E. coli BL21; details: 5×10^5 CFU/mL; for MIC against E. coli BL21: 96-well plate, 37° C., 10 h
Procedure, shortened: (§1)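 Bacteria grown in LB at 37° C to McFarland 0.5, resuspended and seeded at 5×10^5 CFU/mL in 96-well plates. Purified human EGF-domain proteins two-fold serially diluted, triplicate wells; cultured at 37° C, shaking 175 rpm. MIC = lowest protein concentration with no growth.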

[3] = tested on: Pseudomonas aeruginosa; assay: MIC against Gram-negative bacteria: Pseudomonas aeruginosa; details: 5×10^5 CFU/mL; for MIC against P. aeruginosa: 96-well plate, 37° C., 10 h
Procedure, shortened: as §1

[4] = tested on: Klebsiella pneumonia; assay: MIC against Gram-negative bacteria: Klebsiella pneumonia; details: 5×10^5 CFU/mL; for MIC against K. pneumonia: 96-well plate, 37° C., 10 h
Procedure, shortened: as §1

[5] = tested on: Enterobacter cloacae; assay: MIC against Gram-negative bacteria: Enterobacter cloacae; details: 5×10^5 CFU/mL; for MIC against E. cloacae: 96-well plate, 37° C., 10 h
Procedure, shortened: as §1

[6] = tested on: Aeromonas hydrophila; assay: MIC against Gram-negative bacteria: Aeromonas hydrophila; details: 5×10^5 CFU/mL; for MIC against A. hydrophila: 96-well plate, 37° C., 10 h
Procedure, shortened: as §1

[7] = tested on: Citrobacter diversus; assay: MIC against Gram-negative bacteria: Citrobacter diversus; details: 5×10^5 CFU/mL; for MIC against C. diversus: 96-well plate, 37° C., 10 h
Procedure, shortened: as §1

[8] = tested on: Moraxella catarrhalis; assay: MIC against Gram-negative bacteria: Moraxella catarrhalis; details: 5×10^5 CFU/mL; for MIC against M. catarrhalis: 96-well plate, 37° C., 10 h
Procedure, shortened: as §1

[9] = tested on: Proteus mirabilis; assay: MIC against Gram-negative bacteria: Proteus mirabilis; details: 5×10^5 CFU/mL; for MIC against P. mirabilis: 96-well plate, 37° C., 10 h
Procedure, shortened: as §1

[10] = tested on: Proteus vulgaris; assay: MIC against Gram-negative bacteria: Proteus vulgaris; details: 5×10^5 CFU/mL; for MIC against P. vulgaris: 96-well plate, 37° C., 10 h
Procedure, shortened: as §1

[11] = tested on: Serratia marcescens; assay: MIC against Gram-negative bacteria: Serratia marcescens; details: 5×10^5 CFU/mL; for MIC against S. marcescens: 96-well plate, 37° C., 10 h
Procedure, shortened: as §1

[12] = 10 h cultivation at 37° C., two-fold serial dilution
[13] = E. coli BL21, 10 h cultivation at 37° C.

PRT1149 (APSVCQQDVCHNGGTCHAIFLSSGIVSFQCDCPLHFTGRFCE; listed as Homo sapiens)
MIC [1]: 25 µg/mL
MIC E. coli BL21 [2, 12]: 25 µg/mL
MIC P. aeruginosa [3, 12]: 50 µg/mL
MIC K. pneumonia [4, 12]: 25 µg/mL
MIC E. cloacae [5, 12]: 12.5 µg/mL
MIC A. hydrophila [6, 12]: 50 µg/mL
MIC C. diversus [7, 12]: 12.5 µg/mL
MIC M. catarrhalis [8, 12]: 50 µg/mL
MIC P. mirabilis [9, 12]: 12.5 µg/mL
MIC P. vulgaris [10, 12]: 25 µg/mL
MIC S. marcescens [11, 12]: 50 µg/mL

PRT876 (TAKPCLSNPCKNNGMCRDGWNRYVCDCSGTGYLGRSCE; listed as Homo sapiens)
MIC [1]: 12.5 µg/mL
MIC (μg/mL) E. coli BL21 [2, 13]: 12.5 µg/mL
MIC (μg/mL) P. aeruginosa ([3]; 10 h cultivation at 37° C.): 12.5 µg/mL
MIC (μg/mL) K. pneumonia ([4]; 10 h cultivation at 37° C.): 12.5 µg/mL
MIC (μg/mL) E. cloacae ([5]; 10 h cultivation at 37° C.): 25 µg/mL
MIC (μg/mL) A. hydrophila ([6]; 10 h cultivation at 37° C.): 12.5 µg/mL
MIC (μg/mL) C. diversus ([7]; 10 h cultivation at 37° C.): 25 µg/mL
MIC (μg/mL) M. catarrhalis ([8]; 10 h cultivation at 37° C.): 12.5 µg/mL
MIC (μg/mL) P. mirabilis ([9]; 10 h cultivation at 37° C.): 25 µg/mL
MIC (μg/mL) P. vulgaris ([10]; 10 h cultivation at 37° C.): 25 µg/mL
MIC (μg/mL) S. marcescens ([11]; 10 h cultivation at 37° C.): 25 µg/mL

PRT202 (KSTNCSSKCKGHAVCDHELQCQCEEGWIPPDCD; listed as Homo sapiens)
MIC [1]: 25 µg/mL
MIC (μg/mL) E. coli BL21 [2, 13]: 12.5 µg/mL
MIC (μg/mL) P. aeruginosa ([3]; 10 h cultivation at 37° C.): 12.5 µg/mL
MIC (μg/mL) K. pneumonia ([4]; 10 h cultivation at 37° C.): 12.5 µg/mL
MIC (μg/mL) E. cloacae ([5]; 10 h cultivation at 37° C.): 12.5 µg/mL
MIC (μg/mL) A. hydrophila ([6]; 10 h cultivation at 37° C.): 12.5 µg/mL
MIC (μg/mL) C. diversus ([7]; 10 h cultivation at 37° C.): 12.5 µg/mL
MIC (μg/mL) M. catarrhalis ([8]; 10 h cultivation at 37° C.): 12.5 µg/mL
MIC (μg/mL) P. mirabilis ([9]; 10 h cultivation at 37° C.): 25 µg/mL
MIC (μg/mL) P. vulgaris ([10]; 10 h cultivation at 37° C.): 12.5 µg/mL
MIC (μg/mL) S. marcescens ([11]; 10 h cultivation at 37° C.): 25 µg/mL

PRT1262 (DVDECSMSNGSCDQGCVNTKGSYECVCPPGRRLHWNGKDCV; listed as Homo sapiens)
MIC [1]: 12.5 µg/mL
MIC against E. coli BL21 ([2]; E. coli BL21): 25 µg/mL
MIC against P. aeruginosa ([3]; Pseudomonas aeruginosa): 12.5 µg/mL
MIC against K. pneumonia ([4]; Klebsiella pneumonia): 25 µg/mL
MIC against E. cloacae ([5]; Enterobacter cloacae): 12.5 µg/mL
MIC against A. hydrophila ([6]; Aeromonas hydrophila): 50 µg/mL
MIC against C. diversus ([7]; Citrobacter diversus): 12.5 µg/mL
MIC against M. catarrhalis ([8]; Moraxella catarrhalis): 50 µg/mL
MIC against P. mirabilis ([9]; Proteus mirabilis): 12.5 µg/mL
MIC against P. vulgaris ([10]; Proteus vulgaris): 50 µg/mL
MIC against S. marcescens ([11]; Serratia marcescens): 25 µg/mL

PRT536 (CECHPTGATGPHCSPEGGQCPCQPNVIGRQCTRCATGHYGFPRCKP; listed as Homo sapiens)
MIC [1]: 12.5 µg/mL
MIC against E. coli BL21 [2]: 50 µg/mL
MIC against P. aeruginosa [3]: 12.5 µg/mL
MIC against K. pneumonia [4]: 50 µg/mL
MIC against E. cloacae [5]: 12.5 µg/mL
MIC against A. hydrophila [6]: 50 µg/mL
MIC against C. diversus [7]: 12.5 µg/mL
MIC against M. catarrhalis [8]: 50 µg/mL
MIC against P. mirabilis [9]: 12.5 µg/mL
MIC against P. vulgaris [10]: 50 µg/mL
MIC against S. marcescens [11]: 12.5 µg/mL

PRT203 (CSPAFCNKRGICNNKHHCHCNYLWDPPNCL; listed as Homo sapiens)
MIC [1]: 12.5 µg/mL
MIC (μg/mL) E. coli BL21 [2, 13]: 25 µg/mL
MIC (μg/mL) P. aeruginosa ([3]; 10 h cultivation at 37° C.): 12.5 µg/mL
MIC (μg/mL) K. pneumonia ([4]; 10 h cultivation at 37° C.): 25 µg/mL
MIC (μg/mL) E. cloacae ([5]; 10 h cultivation at 37° C.): 12.5 µg/mL
MIC (μg/mL) A. hydrophila ([6]; 10 h cultivation at 37° C.): 25 µg/mL
MIC (μg/mL) C. diversus ([7]; 10 h cultivation at 37° C.): 50 µg/mL
MIC (μg/mL) M. catarrhalis ([8]; 10 h cultivation at 37° C.): 25 µg/mL
MIC (μg/mL) P. mirabilis ([9]; 10 h cultivation at 37° C.): 50 µg/mL
MIC (μg/mL) P. vulgaris ([10]; 10 h cultivation at 37° C.): 25 µg/mL
MIC (μg/mL) S. marcescens ([11]; 10 h cultivation at 37° C.): 50 µg/mL

PRT541 (CSCDLRGTLGGVAECQPGTGQCFCKPHVCGQACASCKDGFFGLDQADYFGCRS; listed as Homo sapiens)
MIC [1]: 12.5 µg/mL
MIC against E. coli BL21 [2]: 50 µg/mL
MIC against P. aeruginosa [3]: 100 µg/mL
MIC against K. pneumonia [4]: 50 µg/mL
MIC against E. cloacae [5]: 12.5 µg/mL
MIC against A. hydrophila [6]: 50 µg/mL
MIC against C. diversus [7]: 12.5 µg/mL
MIC against M. catarrhalis [8]: 50 µg/mL
MIC against P. mirabilis [9]: 12.5 µg/mL
MIC against P. vulgaris [10]: 25 µg/mL
MIC against S. marcescens [11]: 50 µg/mL
